In US20090136461A1, “Neuronal differentiation method of adult stem cells using small molecules” (priority 2007, published 2009):

Key:
Experiment in all cases: Neuronal differentiation, inverted microscope morphology
Format in all cases: cell-based, Fischer rats
[1] = tested on: adipose-derived stem cells; conditions: 10 μM small molecules; FIG. 3C, FIG. 4
Procedure: (§1) Bone marrow-derived mesenchymal stem cells subcultured for 5 generations were distributed on a well plate. One day later, the cells were treated with DMEM containing 20% FBS and 10 ng/mL b-FGF for a day, so that the cells could proliferate sufficiently. In order to induce differentiation into nerve cells, the cells were treated with differentiation medium containing the small molecules listed in Table 1. The small molecules were used after being dissolved in DMSO (Sigma, USA). The concentration of DMSO was less than 2% of the entire culture medium, and was diluted so that the small molecules were included with a concentration in the range from 1 μM to 100 μM. As negative control, DMEM containing 10% FBS and 1% penicillin-streptomycin was used. And, retinoic acid as positive control, which is a well-known inducer of differentiation into nerve cells, was used after being diluted to 2 μM in DMEM. Differentiation of muscle-derived stem cells and adipose-derived stem cells into nerve cells was induced similarly as in the bone marrow-derived stem cells.

[2] = tested on: bone marrow-derived mesenchymal stem cells; conditions: 10 μM small molecules; FIG. 3A
Procedure: as §1

[3] = tested on: muscle-derived stem cells; conditions: 10 μM small molecules; FIG. 3B
Procedure: as §1

Compound | differentiation (microscopic images) [1] | differentiation (inverted microscopic images) [2] | differentiation (inverted microscopic images) [3]
C/C(=C/CCCCC(=O)NO)C(=O)NC1Cc2ccccc2C1 [AAHA-1] | differentiated | – | –
CC(CCCCC(C)(C)C(=O)NO)C(=O)Nc1ccccc1 (centres unmarked) [AAHA-2] | differentiated | – | –
O=C(CCc1ccc(C(=O)NO)cc1)Nc1cccc(OCc2ccccc2)c1 [BHA-1] | differentiated | differentiated | differentiated
O=C(Nc1ccccc1)/C(=C/c1ccc(C(=O)NO)cc1)COc1ccc2oc3ccccc3c2c1 [BHA-2] | differentiated | – | –
O=C(NO)c1ccc(/C=C(/CNc2ccc(-c3ccccc3)cc2)COc2cccc3ccccc23)cc1 [BHA-3] | differentiated | – | –
COc1ccc(NC(=O)/C(=C/c2ccc(C(=O)NO)cc2)COc2cccc3ccccc23)cn1 [BHA-4] | differentiated | – | –
O=C(NO)c1ccc2c(c1)NC(CCCc1ccccc1)C(=O)N2 (centres unmarked) [QHA-2] | differentiated | differentiated | differentiated
